Data reported in ChEMBL document CHEMBL5149979, “Emerging small-molecule inhibitors of the Bruton's tyrosine kinase (BTK): Current development” (Eur J Med Chem, 2021).
pIC50: −log10 of the molar value. Values after ≈ are worked out from the molar mass of the structure shown.

Legend:
[1] = Kinetic solubility of the compound; format: physicochemical; details: read-out: Kinetic_solubility
[2] = molecular target: T1, Tyrosine-protein kinase BTK (Homo sapiens, UniProt Q06187); test: Inhibition of BTK (unknown origin) using Poly(Glu4,Tyr1) as substrate in presence of ATP
[3] = molecular target: T1, Tyrosine-protein kinase BTK; test: Inhibition of BTK (unknown origin) incubated for 40 mins by radiometric assay
[4] = Antiproliferative activity against human MINO cells reduction in cell viability incubated for 72 hrs by CellTiter-Glo luminescent cell viability assay; format: functional, cell-based
NAMALVA = test: Antiproliferative activity against human NAMALWA cells assessed as reduction in cell viability measured after 72 hrs by CCK-8 assay; format: functional, cell-based
Raji [5] = test: Antiproliferative activity against human Raji cells assessed as reduction in cell viability measured after 72 hrs by CCK-8 assay; format: functional, cell-based
Ramos [6] = test: Antiproliferative activity against human Ramos cells assessed as reduction in cell viability measured after 72 hrs by CCK-8 assay; format: functional, cell-based
U-937 [7] = test: Induction of apoptosis in human U-937 cells assessed as […] at 40 nM incubated for 48 hrs by AnnexinV-FITC/propidium iodide staining based flow cytometry analysis relative to control; format: functional
U-937 [8] = test: Antiproliferative activity against human U-937 cells assessed as reduction in cell viability measured after 72 hrs by CCK-8 assay; details: U-937, 72 h
[9] = molecular target: T1, Tyrosine-protein kinase BTK; test: Inhibition of BTK (unknown origin) incubated for 60 mins by ADP-Glo kinase assay
HL-60 = test: Antiproliferative activity against human HL-60 cells assessed as reduction in cell viability measured after 72 hrs by CCK-8 assay; details: HL-60, 72 h
Ramos [10] = test: Antiproliferative activity against human Ramos cells assessed as growth inhibition incubated for 72 hrs by resazurin dye based fluorescence microplate reader analysis; format: functional
[11] = molecular target: T1, Tyrosine-protein kinase BTK; test: Inhibition of BTK (unknown origin) using Poly(Glu4,Tyr1) as substrate in presence of ATP by radiometric kinase assay
Bcr/Abl fusion protein = Bcr/Abl fusion protein (Homo sapiens, UniProt P00519); test: Inhibition of BCR-ABL (unknown origin) using peptide GGEAIYAAPFKK as substrate; format: protein assay
DOHH-2 = test: Antiproliferative activity against human DOHH-2 cells assessed as inhibition of cell proliferation by MTT assay; format: functional, cell-based
[12] = molecular target: T1, Tyrosine-protein kinase BTK; test: Inhibition of BTK (unknown origin) incubated for 10 mins by caliper mobility shift assay
[13] = Oral bioavailability in rat at 30 mg/kg measured upto 8 hrs; format: ADME, organism-based; details: in vivo
OCI-Ly10 = test: Antiproliferative activity against human OCILY10 cells assessed as inhibition of cell proliferation by MTT assay; format: functional, cell-based
[14] = Antiproliferative activity against human MINO cells assessed as inhibition of cell proliferation by MTT assay; format: functional, cell-based
L02 = test: Antiproliferative activity against human L02 cells assessed as reduction in cell viability by MTT assay; format: functional, cell-based
Rec1 = test: Antiproliferative activity against human REC1 cells assessed as inhibition of cell proliferation by MTT assay; format: functional, cell-based
HEK293 = test: Antiproliferative activity against human HEK293 cells assessed as reduction in cell viability by MTT assay; format: functional, cell-based
TMD8 [15] = test: Antitumor activity against human TMD8 cells xenografted in SCID mouse assessed as tumor growth inhibition at 1.5 mg/kg, po bid administered daily 20 days by caliper analysis; format: functional; details: TMD8, 480 h, time 20 day, read-out: TGI
TMD8 [16] = test: Antiproliferative activity against human TMD8 cells assessed as reduction in cell viability incubated for 96 hrs by MTT assay; format: functional, cell-based; details: TMD8, 96 h
[17] = Inhibition of recombinant human BTK cys481S mutant using Poly(Glu4,Tyr1) and ATP as substrate measured after 2 hrs by ADP-Glo kinase assay
[18] = molecular target: T1, Tyrosine-protein kinase BTK; test: Inhibition of recombinant human wild type BTK using Poly(Glu4,Tyr1) and ATP as substrate measured after 2 hrs by ADP-Glo kinase assay
Raji [19] = test: Antiproliferative activity against human Raji cells assessed as reduction in cell viability incubated for 96 hrs by MTT assay; format: functional, cell-based
TMD8 [20] = test: Antitumor activity against human TMD8 cells xenografted in SCID mouse assessed as tumor growth inhibition at 15 mg/kg, po bid administered daily 20 days by caliper analysis; format: functional; details: TMD8, 480 h, time 20 day, read-out: TGI
TMD8 [21] = test: Antitumor activity against human TMD8 cells xenografted in SCID mouse assessed as tumor growth inhibition at 3 mg/kg, po bid administered daily 20 days by caliper analysis; format: functional; details: TMD8, 480 h, time 20 day, read-out: TGI
[22] = molecular target: Epidermal growth factor receptor (Homo sapiens, UniProt P00533); test: Inhibition EGFR (unknown origin) expressed in baculovirus expression system by ELISA
TMD8 [23] = test: Antiproliferative activity against human TMD8 cells assessed as reduction in cell viability incubated for 72 hrs by CCK-8 assay; format: functional, cell-based; details: TMD8, 72 h
Z-138 = test: Antiproliferative activity against human Z138 cells reduction in cell viability incubated for 72 hrs by CellTiter-Glo luminescent cell viability assay; details: Z-138, 72 h

T1 sequence (Q06187 whole entry): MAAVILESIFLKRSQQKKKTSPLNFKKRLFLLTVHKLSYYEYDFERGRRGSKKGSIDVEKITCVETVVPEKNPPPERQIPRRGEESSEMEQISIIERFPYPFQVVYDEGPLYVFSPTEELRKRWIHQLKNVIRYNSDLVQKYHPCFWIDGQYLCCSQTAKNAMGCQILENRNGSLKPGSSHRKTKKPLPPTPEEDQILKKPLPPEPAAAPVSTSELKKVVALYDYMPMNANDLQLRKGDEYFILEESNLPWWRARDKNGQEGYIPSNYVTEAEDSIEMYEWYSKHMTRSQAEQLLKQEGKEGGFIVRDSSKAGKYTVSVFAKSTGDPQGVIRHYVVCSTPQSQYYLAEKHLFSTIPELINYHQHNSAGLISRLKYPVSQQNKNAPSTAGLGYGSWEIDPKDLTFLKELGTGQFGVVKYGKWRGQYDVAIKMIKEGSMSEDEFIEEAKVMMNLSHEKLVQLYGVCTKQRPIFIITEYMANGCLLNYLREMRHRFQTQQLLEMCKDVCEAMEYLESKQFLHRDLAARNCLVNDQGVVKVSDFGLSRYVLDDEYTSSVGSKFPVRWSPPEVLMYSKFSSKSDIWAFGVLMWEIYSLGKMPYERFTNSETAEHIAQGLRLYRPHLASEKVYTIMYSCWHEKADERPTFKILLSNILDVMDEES
Epidermal growth factor receptor, sequence (P00533 whole entry): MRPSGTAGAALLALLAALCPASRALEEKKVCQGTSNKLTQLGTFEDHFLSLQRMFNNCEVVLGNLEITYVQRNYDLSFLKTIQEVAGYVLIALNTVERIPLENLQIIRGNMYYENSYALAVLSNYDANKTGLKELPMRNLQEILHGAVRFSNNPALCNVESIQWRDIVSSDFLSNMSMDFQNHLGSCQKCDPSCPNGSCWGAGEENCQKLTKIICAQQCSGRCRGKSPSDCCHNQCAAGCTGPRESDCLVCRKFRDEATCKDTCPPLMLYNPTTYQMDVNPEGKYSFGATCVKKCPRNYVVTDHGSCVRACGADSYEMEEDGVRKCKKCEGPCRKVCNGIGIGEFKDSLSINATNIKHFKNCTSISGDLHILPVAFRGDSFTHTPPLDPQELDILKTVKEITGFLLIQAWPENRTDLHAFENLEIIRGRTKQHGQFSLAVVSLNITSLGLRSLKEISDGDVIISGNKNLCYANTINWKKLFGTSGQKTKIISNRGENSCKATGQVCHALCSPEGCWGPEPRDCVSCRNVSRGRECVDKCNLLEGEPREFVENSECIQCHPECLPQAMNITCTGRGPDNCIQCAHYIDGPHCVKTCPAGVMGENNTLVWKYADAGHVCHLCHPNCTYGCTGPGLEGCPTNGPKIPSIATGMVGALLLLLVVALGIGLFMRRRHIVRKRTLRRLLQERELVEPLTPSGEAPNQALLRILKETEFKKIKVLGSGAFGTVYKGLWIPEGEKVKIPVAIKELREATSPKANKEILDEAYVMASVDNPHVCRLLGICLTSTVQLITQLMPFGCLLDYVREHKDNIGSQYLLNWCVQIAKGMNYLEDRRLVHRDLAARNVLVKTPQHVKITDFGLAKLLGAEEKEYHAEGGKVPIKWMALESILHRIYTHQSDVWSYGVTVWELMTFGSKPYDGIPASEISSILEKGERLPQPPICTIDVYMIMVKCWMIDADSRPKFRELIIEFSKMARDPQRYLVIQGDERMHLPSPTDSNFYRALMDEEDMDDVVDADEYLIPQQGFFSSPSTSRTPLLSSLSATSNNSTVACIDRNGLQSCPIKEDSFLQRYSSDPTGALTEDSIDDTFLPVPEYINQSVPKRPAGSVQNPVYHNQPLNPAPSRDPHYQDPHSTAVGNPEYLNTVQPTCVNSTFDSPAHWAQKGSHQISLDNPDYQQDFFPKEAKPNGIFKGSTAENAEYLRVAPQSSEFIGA
Bcr/Abl fusion protein, sequence (P00519 whole entry, the tested form may be a part): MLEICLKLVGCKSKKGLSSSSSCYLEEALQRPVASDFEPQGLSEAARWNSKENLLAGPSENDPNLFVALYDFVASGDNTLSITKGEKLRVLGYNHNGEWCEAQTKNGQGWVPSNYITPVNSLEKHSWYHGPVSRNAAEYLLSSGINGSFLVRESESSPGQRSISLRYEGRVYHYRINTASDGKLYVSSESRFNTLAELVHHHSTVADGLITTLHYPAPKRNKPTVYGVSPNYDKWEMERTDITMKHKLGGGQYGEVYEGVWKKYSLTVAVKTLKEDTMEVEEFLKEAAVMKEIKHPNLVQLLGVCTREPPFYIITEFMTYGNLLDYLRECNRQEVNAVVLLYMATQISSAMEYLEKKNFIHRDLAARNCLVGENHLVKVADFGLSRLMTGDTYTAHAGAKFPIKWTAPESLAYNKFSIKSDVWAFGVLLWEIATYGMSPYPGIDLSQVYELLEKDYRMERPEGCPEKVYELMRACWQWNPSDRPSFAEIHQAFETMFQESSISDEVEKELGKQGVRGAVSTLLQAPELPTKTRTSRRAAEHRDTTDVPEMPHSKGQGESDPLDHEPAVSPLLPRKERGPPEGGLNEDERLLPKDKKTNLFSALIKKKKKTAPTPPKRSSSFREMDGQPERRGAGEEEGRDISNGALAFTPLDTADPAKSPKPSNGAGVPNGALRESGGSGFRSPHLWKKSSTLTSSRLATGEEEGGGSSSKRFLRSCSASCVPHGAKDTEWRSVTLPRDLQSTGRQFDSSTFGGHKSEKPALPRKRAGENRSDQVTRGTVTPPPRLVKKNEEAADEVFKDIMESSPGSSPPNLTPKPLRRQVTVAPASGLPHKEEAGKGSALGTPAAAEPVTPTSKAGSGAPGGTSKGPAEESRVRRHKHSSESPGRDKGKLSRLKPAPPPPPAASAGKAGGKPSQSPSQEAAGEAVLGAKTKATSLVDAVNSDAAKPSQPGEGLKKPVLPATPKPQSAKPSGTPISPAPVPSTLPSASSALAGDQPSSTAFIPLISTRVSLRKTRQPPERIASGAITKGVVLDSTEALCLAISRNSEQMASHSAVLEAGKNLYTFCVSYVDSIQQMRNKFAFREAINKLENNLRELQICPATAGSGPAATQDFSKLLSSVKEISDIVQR
Bcr/Abl fusion protein, sequence (P11274 whole entry, further chain, the tested form may be a part): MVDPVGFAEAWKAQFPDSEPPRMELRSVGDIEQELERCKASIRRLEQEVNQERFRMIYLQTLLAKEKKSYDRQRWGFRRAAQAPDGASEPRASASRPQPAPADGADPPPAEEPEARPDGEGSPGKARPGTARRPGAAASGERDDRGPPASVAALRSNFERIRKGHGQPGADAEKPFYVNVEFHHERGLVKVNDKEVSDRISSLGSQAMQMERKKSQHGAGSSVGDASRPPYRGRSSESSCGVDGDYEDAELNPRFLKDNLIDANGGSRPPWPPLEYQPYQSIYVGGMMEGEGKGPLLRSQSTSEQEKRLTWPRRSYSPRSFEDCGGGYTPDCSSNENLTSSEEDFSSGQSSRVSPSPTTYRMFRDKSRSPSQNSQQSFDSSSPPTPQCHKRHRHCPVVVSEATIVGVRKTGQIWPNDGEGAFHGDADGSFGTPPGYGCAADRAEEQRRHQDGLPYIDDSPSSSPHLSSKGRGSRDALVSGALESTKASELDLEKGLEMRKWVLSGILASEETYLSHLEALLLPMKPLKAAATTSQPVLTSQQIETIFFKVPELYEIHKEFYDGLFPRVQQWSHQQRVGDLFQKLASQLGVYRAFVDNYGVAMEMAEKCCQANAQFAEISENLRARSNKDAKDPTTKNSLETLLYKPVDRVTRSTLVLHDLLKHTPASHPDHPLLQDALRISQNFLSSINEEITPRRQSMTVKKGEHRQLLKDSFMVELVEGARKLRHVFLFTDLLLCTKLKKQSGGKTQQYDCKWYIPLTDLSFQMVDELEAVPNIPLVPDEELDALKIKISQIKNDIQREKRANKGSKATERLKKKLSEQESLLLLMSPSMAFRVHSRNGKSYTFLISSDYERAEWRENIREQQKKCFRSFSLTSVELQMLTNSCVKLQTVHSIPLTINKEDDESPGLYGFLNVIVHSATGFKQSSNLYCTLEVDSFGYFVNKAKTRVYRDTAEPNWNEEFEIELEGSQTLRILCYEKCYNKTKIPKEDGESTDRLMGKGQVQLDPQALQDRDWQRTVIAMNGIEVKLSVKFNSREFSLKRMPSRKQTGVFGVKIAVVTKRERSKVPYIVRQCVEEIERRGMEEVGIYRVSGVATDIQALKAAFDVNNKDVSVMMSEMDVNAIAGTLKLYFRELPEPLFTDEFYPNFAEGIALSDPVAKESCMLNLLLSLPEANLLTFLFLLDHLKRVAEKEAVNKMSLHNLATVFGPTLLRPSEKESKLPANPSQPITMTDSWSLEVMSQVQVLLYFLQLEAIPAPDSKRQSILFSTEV

C=CS(=O)(=O)N1CCC(Cn2cc(-c3ccc4c(c3)OCO4)c3c(N)ncnc32)CC1
solubility kinetic [1]: 100 µg/mL (≈ 226 µM)
pIC50 [2]: 8.88

Nc1ccc(Cn2nc(-c3ccc(Oc4ccccc4)cc3)c3c(N)ncnc32)cc1
pIC50 [3]: 7.09
pIC50 [4]: 4.86

C=CC(=O)Nc1cccc(Nc2nc(Nc3ccc(Cn4cc(C)nc4CC)cc3)ncc2Cl)c1
pIC50 (NAMALVA): > 4.97
pIC50 (Raji [5]): > 4.97
pIC50 (Ramos [6]): > 4.97
Activity (U-937 [7]): 55%
pIC50 (U-937 [8]): 7.42
pIC50 [9]: 7.75
pIC50 (HL-60): 6.96

CN1CCN(c2ccc(Nc3nc(Nc4ccc(F)c(F)c4)c4ncn(CC5CC5)c4n3)cc2F)CC1
GI50 (Ramos [10]): 4100 nM
pIC50 [11]: 5.58
pIC50 (Bcr/Abl fusion protein): 6.24

C=C(Cl)C(=O)N1CCC[C@H](n2nc(-c3ccc(Oc4ccccc4)cc3)c3c(N)ncnc32)C1
pIC50 (DOHH-2): 6.66
pIC50 [12]: 8.60
bioavailability [13]: 6%
pIC50 (OCI-Ly10): 6.80
pIC50 [14]: 6.25
pIC50 (L02): 4.80
pIC50 (Rec1): 8.00
pIC50 (HEK293): 5.26

Nc1cccc(Cn2nc(-c3ccc(Oc4ccccc4)cc3)c3c(N)ncnc32)c1
pIC50 [3]: 7.12
pIC50 [4]: 5.02

C=CC(=O)Nc1cccc(Nc2nc(Nc3ccc(Cn4cc(C)nc4CC)cc3)ncc2F)c1
pIC50 (NAMALVA): > 4.97
pIC50 (Raji [5]): > 4.97
pIC50 (Ramos [6]): > 4.97
pIC50 (U-937 [8]): 6.98
pIC50 [9]: 7.37
pIC50 (HL-60): 6.94

CN1CCN(c2ccc(Nc3nc(Nc4ccc(F)c(F)c4)c4ncn(CC5CC5)c4n3)cc2)CC1
GI50 (Ramos [10]): 4630 nM
pIC50 [11]: 6.24

C=CC(=O)N1CC2CC(n3nc(-c4ccc(C(=O)Nc5ccccn5)cc4)c4c(N)ncnc43)CC2C1 (stereo not given)
inhibition in vivo at 1.5 mg/kg (TMD8 [15]): 10%
pIC50 (TMD8 [16]): 9.11
pIC50 [17]: 7.85
pIC50 [18]: 9.00
pIC50 (Raji [19]): 4.88
inhibition in vivo at 15 mg/kg (TMD8 [20]): 88%
inhibition in vivo at 3 mg/kg (TMD8 [21]): 50%

C=CC(=O)Nc1cccc(N2C(=O)OC(C)c3cnc(Nc4ccc(N5CCN(C)CC5)cc4OC)nc32)c1 (stereo not given)
pIC50 [22]: 7.32
pIC50 (TMD8 [23]): 7.55
pIC50 [2]: 8.15

Nc1ncnc2c1c(-c1ccc(Oc3ccccc3)cc1)nn2Cc1cccc(NC(=O)CCl)c1
pIC50 [3]: 7.57
pIC50 [4]: 6.05

C=CC(=O)Nc1cccc(N2C(=O)OCc3cnc(Nc4ccc(N5CCN(C)CC5)cc4OC)nc32)c1
pIC50 [22]: 7.54
pIC50 [2]: 8.33

Nc1ncnc2c1c(-c1ccc(Oc3ccccc3)nc1)nn2C1CCCN(C(=O)CCl)C1 (stereo not given)
pIC50 (Z-138): 6.40
pIC50 [3]: 7.44
pIC50 [4]: 6.40

C=CC(=O)N1CCCC(Cn2cc(-c3ccc(Oc4ccccc4)cc3)c3c(N)ncnc32)C1 (single isomer, unassigned)
pIC50 [2]: 8.77
